Measurements: patent EP1806346B1, “Substituted piperazine compounds and their use as fatty acid oxidation inhibitors” (CV THERAPEUTICS, INC., priority 2002, dated 2004)

System: Palmitoyl CoA oxidation
Experiment: Mitochondrial assay: palmitoyl CoA oxidation
Type: biochemical
Settings: Rat heart mitochondria, 16 µM 1-14C palmitoyl CoA, 15 min at 30°C, 14C bicarbonate counted; read-out: PalmCoA IC50
Protocol: Rat heart mitochondria were isolated by the method ofNedergard and Cannon (Methods in Enzymol. 55, 3, 1979).
Palmitoyl CoA oxidation - The Palmityl CoA oxidation was carried out in a total volume of 100 µL containing the following agents: 110 mM KCl, 33 mM Tris buffer at pH 8, 2 mM KPi, 2 mM MgCl2, 0.1 mM EDTA, 14.7 µM defatted BSA, 0.5 mM malic acid, 13 mM carnitine, 1 mM ADP, 52 µg of mitochondrial protein, and 16 µM 1-14C palmitoyl CoA (Sp. Activity 60 mCi/mmole; 20 µCi/mL, using 5 µL per assay). The compounds of this invention were added in a DMSO solution at the following concentrations: 100 µM, 30 µM, and 3 µM. In each assay, a DMSO control was used. After 15 min at 30°C, the enzymatic reaction was centrifuged (20,000 g for 1 min), and 70 µL of the supernatant was added to an activated reverse phase silicic acid column (approximately 0.5 mL of silicic acid). The column was eluted with 2 mL of water, and 0.5 mL of the eluent was used for scintillation counting to determine the amount of ^14C trapped as ^14C bicarbonate ion.

IC50 [µM] | Compound
15 | Cc1nc2cc(OC[C@H](O)CN3CCN(CC(=O)Nc4cccc5c4CCC5)CC3)ccc2s1
0.33 | Cc1nc2cc(OC[C@H](O)CN3CCN(CC(=O)Nc4ccc(Oc5ccccc5)cc4)CC3)ccc2s1
8.5 | O=C(CN1CCN(C[C@@H](O)COc2ccc3oc(-c4ccccc4)nc3c2)CC1)Nc1cccc(Oc2ccccc2)c1
0.18 | Cc1nc2cc(OC[C@H](O)CN3CCN(CC(=O)Nc4cccc(-c5ccccc5)c4)CC3)ccc2s1
0.85 | CCn1c2ccccc2c2cc(NC(=O)CN3CCN(C[C@@H](O)COc4ccc5sc(C)nc5c4)CC3)ccc21
6.2 | O=C(CN1CCN(C[C@@H](O)COc2ccc3oc(-c4ccccc4)nc3c2)CC1)Nc1ccc2ncccc2c1
5.2 | Cc1nc2cc(OC[C@H](O)CN3CCN(CC(=O)Nc4cccc5cccnc45)CC3)ccc2s1
7 | Cc1nc2cc(OC[C@H](O)CN3CCN(CC(=O)Nc4nc(-c5ccc(Cl)cc5)cs4)CC3)ccc2s1
0.4 | Cc1nc2cc(OC[C@H](O)CN3CCN(CC(=O)Nc4nc(-c5ccc(Cl)cc5)cs4)C[C@@H]3C)ccc2s1
0.08 | Cc1nc2cc(OC[C@H](O)CN3CCN(CC(=O)N[C@H]4CCCc5ccccc54)CC3)ccc2s1
0.85 | Cc1nc2cc(OC[C@H](O)CN3CCN(CC(=O)N[C@@H](C)c4ccc5ccccc5c4)CC3)ccc2s1
4.4 | Cc1nc2cc(OC[C@H](O)CN3CCN(CC(=O)N[C@@H](C)c4ccccc4)CC3)ccc2s1
